Legend:
Assay in all cases: GRmax, 72 h; higher = less effect;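 also: breast cell lines in 384-well plates, nine doses across a 10^4 range, Dye Drop imaging of viable cells vs DMSO and time-zero plates, GR 0 means no net growth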
HTERT_HME1 = system: HTERT_HME1
EFM19 = system: EFM19
HCC1187 = system: HCC1187
MDAMB175VII = system: MDAMB175VII
PDX1328 = system: PDX1328
CAL120 = system: CAL120
BT20 = system: BT20
HCC1937 = system: HCC1937
SUM159 = system: SUM159
MDAMB415 = system: MDAMB415
MCF10A = system: MCF10A
MDAMB361 = system: MDAMB361

Structure (SMILES) | GRmax, 72 h (HTERT_HME1) | GRmax, 72 h (EFM19) | GRmax, 72 h (HCC1187) | GRmax, 72 h (MDAMB175VII) | GRmax, 72 h (PDX1328) | GRmax, 72 h (CAL120) | GRmax, 72 h (BT20) | GRmax, 72 h (HCC1937) | GRmax, 72 h (SUM159) | GRmax, 72 h (MDAMB415) | GRmax, 72 h (MCF10A) | GRmax, 72 h (MDAMB361) | GRmax, 72 h (HTERT_HME1; main component drawn) | GRmax, 72 h (PDX1328; main component drawn) | GRmax, 72 h (CAL120; main component drawn) | GRmax, 72 h (BT20; main component drawn) | GRmax, 72 h (HCC1937; main component drawn) | GRmax, 72 h (SUM159; main component drawn) | GRmax, 72 h (MCF10A; main component drawn) | GRmax, 72 h (MDAMB361; main component drawn)
C[C@@H]1COCCN1c1cc(C2([S@](C)(=N)=O)CC2)nc(-c2cc[nH]c3nccc2-3)n1 [AZD6738] (max 10 µM) | 0.287 GR | 0.845 GR | -0.332 GR | 0.149 GR | 0.299 GR | 0.783 GR | 0.187 GR | 0.298 GR | 0.497 GR | 0.522 GR | 0.442 GR | -0.166 GR | – | – | – | – | – | – | – | –
NC(=O)Nc1cc(-c2cccc(F)c2)sc1C(=O)N[C@H]1CCCNC1 [AZD7762] (max 10 µM) | -0.478 GR | -0.149 GR | -0.691 GR | -0.811 GR | -0.578 GR | -0.495 GR | -0.578 GR | -0.362 GR | -0.278 GR | -0.481 GR | -0.18 GR | -0.675 GR | – | – | – | – | – | – | – | –
Cc1nc(NC(=O)N2CCC[C@H]2C(N)=O)sc1-c1ccnc(C(C)(C)C(F)(F)F)c1 [Alpelisib/BYL719] (max 10 µM) | 0.307 GR | -0.151 GR | 0.608 GR | -0.697 GR | 0.203 GR | 0.608 GR | -0.118 GR | 0.658 GR | 0.602 GR | 0.613 GR | 0.579 GR | -0.799 GR | – | – | – | – | – | – | – | –
CN(C)C/C=C/C(=O)Nc1ccc(O[C@@H]2CCC[C@@H](Nc3ncc(Cl)c(-c4c[nH]c5ccccc45)n3)C2)cc1 [BSJ-01-175] (max 10 µM) | -0.28 GR | -0.322 GR | -0.827 GR | -0.798 GR | -0.254 GR | -0.272 GR | -0.669 GR | -0.603 GR | -0.473 GR | -0.491 GR | -0.566 GR | -0.804 GR | – | – | – | – | – | – | – | –
CC(=O)c1c(C)c2cnc(Nc3ccc(N4CCN(CCOCCOCCOCCNC(=O)COc5cccc6c5C(=O)N(C5CCC(=O)NC5=O)C6=O)CC4)cn3)nc2n(C2CCCC2)c1=O (configuration not stated) [BSJ-03-123] (max 10 µM) | -0.153 GR | 0.156 GR | -0.518 GR | 0.0607 GR | 0.28 GR | 0.239 GR | -0.005 GR | 0.493 GR | -0.042 GR | 0.149 GR | -0.113 GR | -0.0849 GR | – | – | – | – | – | – | – | –
CC(C)Nc1cc(-c2c[nH]c(C(=O)N[C@H](CO)c3cccc(Cl)c3)c2)c(Cl)cn1 [BVD523] (max 10 µM) | 0.001 GR | 0.798 GR | 0.649 GR | -0.31 GR | 0.752 GR | 0.482 GR | 0.463 GR | 0.534 GR | 0.156 GR | 0.533 GR | 0.185 GR | 0.27 GR | – | – | – | – | – | – | – | –
Cc1c(N)nc([C@H](CC(N)=O)NC[C@H](N)C(N)=O)nc1C(=O)N[C@H](C(=O)N[C@H](C)[C@@H](O)[C@H](C)C(=O)N[C@H](C(=O)NCCc1nc(-c2nc(C(=O)NCCC[S+](C)C)cs2)cs1)[C@@H](C)O)[C@@H](OC1OC(CO)C(O)C(O)C1OC1OC(CO)C(O)C(OC(N)=O)C1O)c1cnc[nH]1 (some centres not stated) [Bleomycin] (max 10 µM) | – | – | – | – | – | – | – | – | – | – | – | – | -0.111 GR | 0.306 GR | 0.0886 GR | -0.129 GR | 0.139 GR | -0.21 GR | 0.0378 GR | -0.266 GR
Nc1cc(C(F)(F)F)c(-c2cc(N3CCOCC3)nc(N3CCOCC3)n2)cn1 [Buparlisib/NVP-BKM120] (max 10 µM) | -0.241 GR | -0.356 GR | -0.608 GR | -0.976 GR | -0.351 GR | -0.272 GR | -0.551 GR | -0.226 GR | -0.279 GR | -0.515 GR | -0.16 GR | -0.958 GR | – | – | – | – | – | – | – | –
COc1cc2nccc(Oc3ccc(NC(=O)C4(C(=O)Nc5ccc(F)cc5)CC4)cc3)c2cc1OC [Cabozantinib] (max 10 µM) | -0.105 GR | 0.668 GR | 0.222 GR | 0.0863 GR | 0.251 GR | 0.257 GR | -0.203 GR | 0.76 GR | 0.257 GR | 0.412 GR | 0.843 GR | 0.662 GR | – | – | – | – | – | – | – | –
COc1cc2c(Oc3ccc4[nH]c(C)cc4c3F)ncnc2cc1OCCCN1CCCC1 [Cediranib/AZD2171] (max 10 µM) | 0.0275 GR | 0.685 GR | 0.349 GR | -0.648 GR | -0.544 GR | -0.124 GR | 0.221 GR | 0.278 GR | 0.518 GR | -0.208 GR | 0.478 GR | -0.98 GR | – | – | – | – | – | – | – | –
Cc1cc(Nc2ncc(Cl)c(Nc3ccccc3S(=O)(=O)C(C)C)n2)c(OC(C)C)cc1C1CCNCC1 [Ceritinib/LDK378] (max 10 µM) | -0.356 GR | -0.258 GR | 0.121 GR | 0.261 GR | -0.943 GR | -0.432 GR | -0.737 GR | -0.573 GR | -0.487 GR | -0.975 GR | -0.319 GR | -0.991 GR | – | – | – | – | – | – | – | –
N.N.[Cl][Pt][Cl] [Cisplatin] (max 10 µM) | -0.218 GR | – | – | – | -0.422 GR | 0.188 GR | -0.337 GR | 0.006 GR | 0.0896 GR | – | 0.379 GR | -0.35 GR | – | – | – | – | – | – | – | –
Cc1nc(Nc2ncc(C(=O)Nc3c(C)cccc3Cl)s2)cc(N2CCN(CCO)CC2)n1 [Dasatinib] (max 10 µM) | -0.0749 GR | -0.0421 GR | 0.069 GR | -0.714 GR | -0.401 GR | 0.176 GR | 0.283 GR | 0.0153 GR | 0.732 GR | 0.342 GR | -0.0146 GR | 0.0805 GR | – | – | – | – | – | – | – | –
COc1cccc2c1C(=O)c1c(O)c3c(c(O)c1C2=O)C[C@@](O)(C(=O)CO)C[C@@H]3O[C@H]1C[C@H](N)[C@H](O)[C@H](C)O1 [Doxorubicin] (max 3.162 µM) | -0.399 GR | -0.18 GR | -0.83 GR | -0.595 GR | -0.739 GR | -0.247 GR | -0.481 GR | -0.166 GR | -0.361 GR | -0.423 GR | -0.324 GR | -0.722 GR | – | – | – | – | – | – | – | –
CO[C@H]1C[C@@H]2CC[C@@H](C)[C@@](O)(O2)C(=O)C(=O)N2CCCC[C@H]2C(=O)O[C@H]([C@H](C)C[C@@H]2CC[C@@H](OCCO)[C@H](OC)C2)CC(=O)[C@H](C)/C=C(\C)[C@@H](O)[C@@H](OC)C(=O)[C@H](C)C[C@H](C)/C=C/C=C/C=C/1C [Everolimus] (max 10 µM) | 0.489 GR | 0.249 GR | 0.568 GR | -0.189 GR | 0.371 GR | 0.527 GR | 0.39 GR | 0.632 GR | 0.866 GR | 0.0852 GR | 0.789 GR | 0.0574 GR | – | – | – | – | – | – | – | –
CCC(=O)Nc1ccc(C(=O)Nc2ccc(Nc3ncc4c(n3)N(C)c3ccc(C)cc3C(=O)N4C)cc2)cc1 [FMF-03-145-1] | -0.0813 GR | 0.175 GR | -0.506 GR | 0.0817 GR | 0.128 GR | 0.191 GR | -0.201 GR | -0.0558 GR | -0.12 GR | 0.0653 GR | -0.0249 GR | 0.286 GR | – | – | – | – | – | – | – | –
CC[C@@]1(O)C(=O)OCc2c1cc1n(c2=O)Cc2cc3c(CN(C)C)c(O)ccc3nc2-1 [Topotecan] (max 10 µM) | -0.34 GR | – | – | – | -0.913 GR | -0.336 GR | -0.641 GR | -0.428 GR | -0.454 GR | – | -0.2 GR | -0.762 GR | – | – | – | – | – | – | – | –
